Experiment [1] deals with primary cortical neurons. The class given is cell-based.
The test system of experiment [2] is primary cortical neurons. The class given is cell-based. This is another data set of the same source.
Experiment [3] concerns primary cortical neurons. The class given is cell-based. The source holds these as a separate data set.
In experiment [4] the test system is primary cortical neurons. The class given is cell-based. The source holds these as a separate data set.
Experiment [5] relates to mouse middle cerebral artery occlusion (MCAO) stroke model. The following applies: in vivo.
The test system is the same in experiment [6]. The following applies: in vivo. This is another data set of the same source.

Each structure is given as a SMILES string.

As to `O=C1CC[C@@]2(O)[C@H]3Cc4ccc(O)c5c4[C@@]2(CCN3CC2CC2)[C@H]1O5` [NTX, naltrexone], the “neuronal cell death (LDH), in words” value in the experiment on primary cortical neurons [1] was “No statistical significant difference”. The “ROS production, in words” value with primary cortical neurons [2] is on record as “did not show significant decrease in ROS production”.
Turning to `C[C@@H](NC(=O)[C@@H](N)Cc1ccc(O)cc1)C(=O)NCC(=O)N[C@@H](Cc1ccccc1)C(=O)NNC(=O)[C@H](Cc1ccccc1)NC(=O)CNC(=O)[C@@H](C)NC(=O)[C@@H](N)Cc1ccc(O)cc1` [biphalin], in the experiment on primary cortical neurons [1], the “neuronal cell death (LDH), in words” value is given as “significantly decreased neuronal cell death”. Besides, the “relative neuronal survival (MTT), in words” value in the experiment on primary cortical neurons [3] was “significantly improved relative neuronal survival”. In the experiment with primary cortical neurons [4], the “less LDH release” value is reported as 18.4% and the “relative neuronal death (LDH), in words” value was “significantly decreased relative neuronal death”. The “improvement of neurological score” value in experiment [5] worked out at 25.5%. For the same molecule, in experiment [6], the “Horizontal Activity” value was determined as 760 ± 75, the “No. of Movements” value turned out to be 42 ± 6, the “Rest Time” value worked out at 240 ± 7 s and the “Stereotypy Counts” value is 390 ± 46. Besides, in experiment [6], the “Total Distance” value is listed as 650 ± 81 CM and the “Vertical Activity” value was 28 ± 3.

These data come from patent US20180127465A1 (priority 2015, published 2018).
